Assay results as given in patent US20250082763A1, “COMBINATION DRUG FOR TREATING TRIPLE-NEGATIVE BREAST CANCER” (HINOVA PHARMACEUTICALS INC., priority 2022, published 2025).

Key:
Type in all cases: cell-based
[1] = system: MFM-223; test: Antiproliferation, CellTiter-Glo, 5 days, MFM-223; conditions: Homo sapiens, 120 h, MFM-223, AR+ TNBC
Description: (§1) For MDA-MB-453, MFM-223, SUM159PT, MDA-MB-468, and HCC1937, 4,000, 3,000, 1,000, 3,000, and 3,000 cells were plated per well in 96-well microplates (Corning Inc), respectively. Cells were treated with serial dilutions of tested compounds with the maximum working concentration of 10 μM. Cell survival was measured 5 days later using a CellTiter-Glo luminescent cell viability assay kit (Promega Corporation). Luminescence was recorded by FLUOstar Omega microplate reader (BMG Labtech). Half maximal inhibitory concentration (IC50) was determined with GraphPad Prism using baseline correction (by normalizing to dimethyl sulfoxide (DMSO) control)

[2] = system: HCC1937; test: Antiproliferation, CellTiter-Glo, 5 days, HCC1937; conditions: Homo sapiens, 120 h, HCC1937, AR− TNBC
Description: as §1

[3] = system: SUM159PT; test: Antiproliferation, CellTiter-Glo, 5 days, SUM159PT; conditions: Homo sapiens, SUM-159-PT, 120 h, AR+ TNBC
Description: as §1, with “Cells” for “For MDA-MB-453, MFM-223, SUM159PT, MDA-MB-468, and HCC1937, 4,000, 3,000, 1,000, 3,000, and 3,000 cells were plated per well in 96-well microplates (Corning Inc), respectively. Cells”

[4] = system: MDA-MB-453 cells; test: Combination with chemotherapeutic drug Paclitaxel, proliferation of MDA-MB-453 cells, Combination Index; conditions: molar ratio to Paclitaxel 20:1-5000:1, 7 days
Description: (§2) Triple negative breast cancer MDA-MB-453 cells in logarithmic growth stage were inoculated into a 96-well plate at a concentration of 4×10^3 cells/well, and then incubated in an incubator at 37° C., 5% CO2, and saturated humidity for 24 h. To the negative control wells, were added RPMI 1640 cell culture medium containing 10% fetal bovine serum in the same volume as the drug. After cultured for 24 h, to the 96-well plate, were sequentially added AR PROTACs compounds 279, 281, 282, ARV-110 and chemotherapeutic drug Paclitaxel, respectively.
(§3) After adding the drugs and co-incubating for 7 days, 10 μL of CCK-8 was added to each well, and then the plate was further cultured for 2 h. The absorbance value (OD) of each well was measured using a microplate reader at a wavelength of 450 nm. The survival rate was calculated using Prism software, the relative survival rate=(OD value of drug well/OD value of control well)×100%. Alternatively, 100 μL of medium was removed from each well, and then 50 μL of CTG was added. The plate was shaken in the dark for 2 min, allowed to stand for 10 min, and then measured using a microplate reader in Luminescence mode. Prism software was used to calculate the survival rate, the relative survival rate=(the RLU value of drug well/the RLU value of control well)×100%.

[5] = system: MDA-MB-453 cells; test: Combination with PI3K inhibitor Idelalisib, proliferation of MDA-MB-453 cells, Combination Index; conditions: molar ratio to Idelalisib 1:270-1:3.333, 7-10 days
Description: as §2, with “ARV-110, ARV-766” for “ARV-110”, “PI3K inhibitor Idelalisib,” for “chemotherapeutic drug Paclitaxel,”
as §3, with “7-10” for “7”

[6] = system: MDA-MB-453 cells; test: Combination with PI3K inhibitor Alpelisib, proliferation of MDA-MB-453 cells, Combination Index; conditions: molar ratio to Alpelisib 1:27-9:1, 7 days
Description: as §2, with “ARV-110, ARV-766” for “ARV-110”, “PI3K inhibitor Alpelisib,” for “chemotherapeutic drug Paclitaxel,”
as §3, with “addition of” for “adding”, “co-incubation” for “co-incubating”

N#Cc1ccc(O[C@H]2CC[C@H](NC(=O)c3ccc(N4CCC(CN5CCN(c6cc7c(cc6F)C(=O)N(C6CCC(=O)NC6=O)C7=O)CC5)CC4)nn3)CC2)cc1Cl (stereo partly drawn) [ARV-110, reference compound]
IC50 [1]: 4000 nM
IC50 [2]: > 10000 nM
IC50 [3]: 1600 nM
effect of the combination with Paclitaxel on inhibiting proliferation (CI<1 = synergistic) [4]: synergistic effect
effect of the combination with Idelalisib on inhibiting proliferation (CI<1 = synergistic) [5]: synergistic effect
effect of the combination with Alpelisib on inhibiting proliferation (CI<1 = synergistic) [6]: synergistic effect

N#Cc1ccc(O[C@H]2CC[C@H](NC(=O)c3cnc(N4CCC(CN5CCC6(CC5)CN(c5ccc7c(c5)C(=O)N(C5CCC(=O)NC5=O)C7=O)C6)CC4)nn3)CC2)cc1Cl (stereo partly drawn) [Compound 279]
IC50 [1]: 460 nM
IC50 [2]: > 10000 nM
IC50 [3]: 440 nM
effect of the combination with Paclitaxel on inhibiting proliferation (CI<1 = synergistic) [4]: synergistic effect
effect of the combination with Idelalisib on inhibiting proliferation (CI<1 = synergistic) [5]: synergistic effect
effect of the combination with Alpelisib on inhibiting proliferation (CI<1 = synergistic) [6]: synergistic effect
